Measured values taken from the supplement of paper PMC11061612.

What was measured:
[1] = system: DMS-273 (Small Cell Lung Carcinoma); assay: Bliss excess, mean over the matrix (fraction); higher = more synergy
In short: (§1)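 After 24 hours at 37°C and 5% CO2 in 1536-well plates, cells in DMEM/F12 or RPMI plus 10% FBS received two-drug dose matrices for 72 hours. Viability came from CellTiter-Glo 2.0 luminescence and was scaled as inhibition, anchored at 0 by vehicle wells and at 1 by blank wells. Combination Emax is taken as the second-highest inhibition in the matrix, and Bliss excess as the observed combination effect less EA + EB − EA·EB, with EA and EB the single-agent effects.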

[2] = system: IHH-4 (Thyroid Gland Carcinoma); assay: as above
In short: as §1

[3] = system: JiyoyeP-2003 (Burkitt's Lymphoma); assay: as above
In short: as §1

[4] = system: LS-513 (Colorectal Carcinoma); assay: as above
In short: as §1

[5] = system: MDA-MB-157 (Breast Carcinoma); assay: as above
In short: as §1

[6] = system: NALM-6 (B-Lymphoblastic Leukemia); assay: as above
In short: as §1

[7] = system: NCI-H1694 (Small Cell Lung Carcinoma); assay: as above
In short: as §1

[8] = system: NCI-H2369 (Mesothelioma); assay: as above
In short: as §1

[9] = system: SUIT-2 (Pancreatic Carcinoma); assay: as above
In short: as §1

[10] = system: SW1783 (Low Grade Glioma); assay: as above
In short: as §1

[11] = system: TE-5 (Esophageal Squamous Cell Carcinoma); assay: as above
In short: as §1

[12] = system: LS-513 (Colorectal Carcinoma); assay: combination Emax (second highest fraction inhibited in the dose matrix, 72 h); higher = more inhibition; extreme values may be limits of the assay
In short: as §1

[13] = system: MFH-ino (Other Solid Carcinomas); assay: as above
In short: as §1

[14] = system: NALM-6 (B-Lymphoblastic Leukemia); assay: as above
In short: as §1

[15] = system: NCI-H2369 (Mesothelioma); assay: as above
In short: as §1

[16] = system: NCI-H2595 (Mesothelioma); assay: as above
In short: as §1

[17] = system: OCI-AML2 (Acute Myeloid Leukemia); assay: as above
In short: as §1

[18] = system: SUIT-2 (Pancreatic Carcinoma); assay: as above
In short: as §1

[19] = system: SW1088 (Low Grade Glioma); assay: as above
In short: as §1

[20] = system: U-266 (Plasma Cell Myeloma); assay: as above
In short: as §1
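For Bliss excess, mean over the matrix in this document: after 72 h of two-drug dosing.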

CN(C)CCCOc1ccc(-c2ccc3ncc4c(c3c2)n(C2CCOCC2)c(=O)n4C)cn1 [AZD0156] + C=CCn1c(=O)c2cnc(Nc3ccc(N4CCN(C)CC4)cc3)nc2n1-c1cccc(C(C)(C)O)n1 [AZD1775] (first compound max 1 µM, partner max 1 µM)
Bliss excess [1]: -0.0142
Bliss excess [2]: 0.0247
Bliss excess [3]: -0.0012
Bliss excess [4]: -0.0448
Bliss excess [5]: -0.0177
Bliss excess [6]: 0.0093
Bliss excess [7]: -0.0303
Bliss excess [8]: -0.0266
Bliss excess [9]: 0.0011
Bliss excess [10]: -0.0624
Bliss excess [11]: -0.0388
combination Emax [12]: 0.827
combination Emax [13]: 0.169
combination Emax [14]: 0.906
combination Emax [15]: 0.207
combination Emax [16]: 0.12
combination Emax [17]: 0.97
combination Emax [18]: 0.619
combination Emax [19]: 0.425
combination Emax [20]: 0.737

CN(C)CCCOc1ccc(-c2ccc3ncc4c(c3c2)n(C2CCOCC2)c(=O)n4C)cn1 [AZD0156] + CCN(CCO)CCCOc1ccc2c(Nc3cc(CC(=O)Nc4cccc(F)c4)[nH]n3)ncnc2c1 [AZD2811] (first compound max 1 µM, 7x7, partner max 1 µM)
Bliss excess [1]: 0.0307
Bliss excess [2]: 0.0153
Bliss excess [3]: 0.0832
Bliss excess [4]: -0.0559
Bliss excess [5]: -0.0069
Bliss excess [6]: -0.0755
Bliss excess [7]: 0.0516
Bliss excess [8]: -0.0392
Bliss excess [9]: -0.0029
Bliss excess [10]: -0.0452
Bliss excess [11]: -0.0536
combination Emax [12]: 0.508
combination Emax [13]: 0.136
combination Emax [14]: 0.766
combination Emax [15]: 0.0791
combination Emax [16]: 0.108
combination Emax [17]: 0.773
combination Emax [18]: 0.13
combination Emax [19]: 0.364
combination Emax [20]: 0.299

CN(C)CCCOc1ccc(-c2ccc3ncc4c(c3c2)n(C2CCOCC2)c(=O)n4C)cn1 [AZD0156] + C[C@@H]1COCCN1C2=NC(=NC(=C2)C3(CC3)[S@](=N)(=O)C)C4=C5C=CNC5=NC=C4 [AZD6738] (first compound max 1 µM, 7x7, partner max 10 µM)
Bliss excess [1]: 0.0084
Bliss excess [2]: 0.0537
Bliss excess [3]: 0.0501
Bliss excess [4]: 0.0068
Bliss excess [5]: -0.0103
Bliss excess [6]: -0.0082
Bliss excess [7]: 0.0229
Bliss excess [8]: -0.0253
Bliss excess [9]: 0.0103
Bliss excess [10]: -0.0435
Bliss excess [11]: -0.0609
combination Emax [12]: 0.822
combination Emax [13]: 0.403
combination Emax [14]: 0.903
combination Emax [15]: 0.187
combination Emax [16]: 0.12
combination Emax [17]: 0.975
combination Emax [18]: 0.71
combination Emax [19]: 0.57
combination Emax [20]: 0.523

CN(C)CCCOc1ccc(-c2ccc3ncc4c(c3c2)n(C2CCOCC2)c(=O)n4C)cn1 [AZD0156] + O=C(c1cc(Cc2n[nH]c(=O)c3ccccc23)ccc1F)N1CCN(C(=O)C2CC2)CC1 [Olaparib] (first compound max 3 µM, partner max 3 µM)
Bliss excess [1]: 0.155
Bliss excess [2]: 0.0949
Bliss excess [3]: 0.007
Bliss excess [4]: 0.0071
Bliss excess [5]: -0.0302
Bliss excess [6]: 0.173
Bliss excess [8]: -0.0455
Bliss excess [9]: 0.028
Bliss excess [10]: 0.007
Bliss excess [11]: -0.0241
combination Emax [12]: 0.267
combination Emax [13]: 0.256
combination Emax [14]: 0.696
combination Emax [15]: 0.181
combination Emax [16]: 0.139
combination Emax [17]: 0.67
combination Emax [18]: 0.195
combination Emax [19]: 0.417
combination Emax [20]: 0.171

C=CCn1c(=O)c2cnc(Nc3ccc(N4CCN(C)CC4)cc3)nc2n1-c1cccc(C(C)(C)O)n1 [AZD1775] + C1CN(CCC1(C(=O)N[C@@H](CCO)C2=CC=C(C=C2)Cl)N)C3=NC=NC4=C3C=CN4 [Capivasertib] (first compound max 3 µM, partner max 3 µM)
Bliss excess [1]: -0.0053
Bliss excess [2]: -0.005
Bliss excess [3]: -0.0726
Bliss excess [4]: -0.0514
Bliss excess [5]: -0.0818
Bliss excess [6]: -0.0371
Bliss excess [8]: 0.0035
Bliss excess [9]: -0.017
Bliss excess [10]: -0.0787
Bliss excess [11]: 0.0129
combination Emax [12]: 0.81
combination Emax [13]: 0.35
combination Emax [14]: 0.985
combination Emax [15]: 0.3
combination Emax [16]: 0.281
combination Emax [17]: 0.988
combination Emax [18]: 0.586
combination Emax [19]: 0.723
combination Emax [20]: 0.795

CN(CCO)CC[C@H](CSc1ccccc1)Nc1ccc(S(=O)(=O)NC(=O)c2ccc(N3CCC([C@@H](O)c4ccccc4-c4ccc(Cl)cc4)CC3)cc2)cc1S(=O)(=O)C(F)(F)F [AZD4320] + Cn1cnc2c(F)c(Nc3ccc(Br)cc3Cl)c(C(=O)NOCCO)cc21 [Selumetinib] (first compound max 1 µM, 7x7, partner max 3 µM)
Bliss excess [1]: -0.0768
Bliss excess [2]: 0.0185
Bliss excess [3]: 0.0288
Bliss excess [5]: 0.0259
Bliss excess [6]: 0.0153
Bliss excess [7]: 0.0042
Bliss excess [8]: 0.0216
Bliss excess [9]: 0.0126
Bliss excess [10]: -0.0419
Bliss excess [11]: 0.0377
combination Emax [12]: 0.941
combination Emax [13]: 0.421
combination Emax [14]: 0.982
combination Emax [15]: 0.435
combination Emax [16]: 0.275
combination Emax [17]: 1
combination Emax [18]: 0.406
combination Emax [19]: 0.289
combination Emax [20]: 0.938

COc1nnc2ccc(N3CCC(c4ccc(OCCN5CCN(C)C(=O)[C@H]5C)cc4)CC3)nn12 [AZD5153] + CN(CC[C@H](CSC1=CC=CC=C1)NC2=C(C=C(C=C2)S(=O)(=O)NC(=O)C3=CC=C(C=C3)N4CCC(CC4)[C@H](C5=CC=CC=C5C6=CC=C(C=C6)Cl)O)S(=O)(=O)C(F)(F)F)CCO [AZD4320] (first compound max 1 µM, 7x7, partner max 1 µM)
Bliss excess [1]: 0.0043
Bliss excess [3]: -0.0036
Bliss excess [7]: 0.0607
Bliss excess [8]: -0.0032
Bliss excess [9]: 0.005
combination Emax [15]: 0.299
combination Emax [18]: 0.306

Cc1c2c(nn1C)CSCc1cc(n(C)n1)CSc1cc(c3ccccc3c1)OCCCc1c(C(=O)O)n(C)c3c-2c(Cl)ccc13 [AZD5991] + C=CCn1c(=O)c2cnc(Nc3ccc(N4CCN(C)CC4)cc3)nc2n1-c1cccc(C(C)(C)O)n1 [AZD1775] (first compound max 1 µM, partner max 1 µM)
Bliss excess [1]: -0.0476
Bliss excess [2]: 0.02
Bliss excess [3]: -0.0253
Bliss excess [4]: -0.0115
Bliss excess [5]: 0.001
Bliss excess [6]: -0.0229
Bliss excess [7]: -0.0247
Bliss excess [8]: 0.0049
Bliss excess [9]: 0.0014
Bliss excess [11]: 0.0264
combination Emax [12]: 0.871
combination Emax [13]: 0.31
combination Emax [14]: 0.878
combination Emax [15]: 0.327
combination Emax [16]: 0.282
combination Emax [17]: 1
combination Emax [18]: 0.555
combination Emax [19]: 0.352
combination Emax [20]: 0.99

Cc1c2c(nn1C)CSCc1cc(n(C)n1)CSc1cc(c3ccccc3c1)OCCCc1c(C(=O)O)n(C)c3c-2c(Cl)ccc13 [AZD5991] + Cc1cc2ncnn2cc1Nc1ncc2c(n1)n(C1CCOCC1)c(=O)n2C [AZD7648] (first compound max 1 µM, 7x7, partner max 10 µM)
Bliss excess [1]: -0.0113
Bliss excess [2]: -0.0281
Bliss excess [3]: 0.0725
Bliss excess [4]: 0.002
Bliss excess [5]: -0.0214
Bliss excess [6]: -0.0303
Bliss excess [7]: -0.0059
Bliss excess [8]: 0.0018
Bliss excess [10]: -0.0408
Bliss excess [11]: -0.0257
combination Emax [12]: 0.319
combination Emax [13]: 0.348
combination Emax [14]: 0.471
combination Emax [15]: 0.17
combination Emax [16]: 0.291
combination Emax [17]: 0.967
combination Emax [18]: 0.179
combination Emax [19]: 0.423
combination Emax [20]: 0.945

COc1cc2ncnc(Nc3ccc(F)c(Cl)c3)c2cc1OCCCN1CCOCC1 [Gefitinib] + CC(C)n1c(=O)n(C)c2cnc3cc(F)c(-c4ccc(OCCCN5CCCCC5)nc4)cc3c21 [AZD1390] (first compound max 10 µM, 7x7, partner max 0.3 µM)
Bliss excess [1]: -0.0068
Bliss excess [2]: -0.043
Bliss excess [3]: -0.0386
Bliss excess [4]: -0.0362
Bliss excess [5]: -0.0453
Bliss excess [6]: -0.0643
Bliss excess [8]: -0.0614
Bliss excess [9]: -0.0527
Bliss excess [10]: -0.0571
Bliss excess [11]: -0.045
combination Emax [12]: 0.354
combination Emax [13]: 0
combination Emax [14]: 0.176
combination Emax [15]: 0.0747
combination Emax [16]: 0.129
combination Emax [17]: 0.083
combination Emax [18]: 0.111
combination Emax [19]: 0.108
combination Emax [20]: 0.124

CC(=O)c1c(C)c2cnc(Nc3ccc(N4CCNCC4)cn3)nc2n(C2CCCC2)c1=O [Palbociclib] + CN(CC[C@H](CSC1=CC=CC=C1)NC2=C(C=C(C=C2)S(=O)(=O)NC(=O)C3=CC=C(C=C3)N4CCC(CC4)[C@H](C5=CC=CC=C5C6=CC=C(C=C6)Cl)O)S(=O)(=O)C(F)(F)F)CCO [AZD4320] (first compound max 10 µM, 7x7, partner max 1 µM)
Bliss excess [1]: -0.106
Bliss excess [3]: -0.0053
Bliss excess [7]: 0.0632
Bliss excess [8]: -0.0408
Bliss excess [9]: -0.0937
combination Emax [15]: 0.259
combination Emax [18]: 0.354

CCc1c2c(nc3ccc(O)cc13)-c1cc3c(c(=O)n1C2)COC(=O)[C@]3(O)CC [SN-38] + O=C(c1cc(Cc2n[nH]c(=O)c3ccccc23)ccc1F)N1CCN(C(=O)C2CC2)CC1 [Olaparib] (first compound max 0.3 µM, 7x7, partner max 10 µM)
Bliss excess [1]: 0.0129
Bliss excess [2]: 0.0356
Bliss excess [3]: 0.104
Bliss excess [4]: 0.0731
Bliss excess [5]: 0.0102
Bliss excess [6]: 0.0775
Bliss excess [8]: 0.0128
Bliss excess [9]: -0.0211
Bliss excess [10]: 0.061
Bliss excess [11]: 0.0521
combination Emax [12]: 0.665
combination Emax [13]: 0.652
combination Emax [14]: 0.99
combination Emax [15]: 0.265
combination Emax [16]: 0.28
combination Emax [17]: 0.999
combination Emax [18]: 0.728
combination Emax [19]: 0.434
combination Emax [20]: 0.367

C[C@@H](c1ccc2nccn2c1)n1nnc2ncc(-c3cnn(C)c3)nc21 [Savolitinib] + CN(CC[C@H](CSC1=CC=CC=C1)NC2=C(C=C(C=C2)S(=O)(=O)NC(=O)C3=CC=C(C=C3)N4CCC(CC4)[C@H](C5=CC=CC=C5C6=CC=C(C=C6)Cl)O)S(=O)(=O)C(F)(F)F)CCO [AZD4320] (first compound max 1 µM, 7x7, partner max 1 µM)
Bliss excess [1]: -0.0126
Bliss excess [3]: -0.0082
Bliss excess [7]: -0.042
Bliss excess [8]: -0.0522
Bliss excess [9]: 0.0046
combination Emax [15]: 0.114
combination Emax [18]: 0.241
